Tested on: LT-HSC, ST-HSC, MPP
Assay: Ki67 expression and HSPC depletion after AZA (dose titration)
Type: in vivo, C57BL/6 mice
Experimental: A. Schematic of treatment protocol. […] 24 h after last AZA injection BM was analyzed for HSC-depletion and Ki67 intracellular protein expression. B. […] C. Mean fluorescence intensity (MFI) of Ki67 intracellular protein expression in LT-HSC, ST-HSC, MPP2, MPP3/4 and myeloid progenitors (MP). Data were pooled from 2 independent experiments and represent mean±SD (n=7). Statistics were calculated Mann-Whitney test (*P<0.05; **P<0.01; ***P<0.001). D. Schematic of in vitro culture protocol. Mouse Lin^−Sca1+c-Kit^+CD48^− or human Lin^−CD34^+CD38^− were FACS-sorted and plated in 96-well flat bottom plate, coated with fibronectin and containing 100 μl of HSC media/well, supplemented with 10 ng/ml SCF and 100 ng/ml TPO. Different concentrations of AZA (0.1, 0.5 and 1 μg/ml) were added on two consecutive days (at baseline and 24 h after cell culturing) and cell counting, and cell imaging was performed every 6 h for total of 48 h on ImagExpress Pico automated cell counting system. After 48 h % live/dead cells was assessed by using EarlyTox Live/Dead Assay Kit. E. Proliferation curves of FACS-sorted mouse Lin^−Sca1^+c-Kit^+CD48^− in the presence of indicated concentrations of AZA (left) and cell viability as assessed by % of Calcein AM positive cells after 48 h of cell culture (right). Data represent mean±SD from 3 independent experiments. Statistics were calculated with Mann-Whitney test (*P<0.05; **P<0.01; ***P<0.001). F. Proliferation curves of FACS-sorted human Lin^−CD34^+CD38^− cells in the presence of indicated concentrations of AZA (left) and cell viability as assessed by % of Calcein AM positive cells after 48 h of cell culture (right). Data represent mean±SD from 2 independent experiments. Statistics were calculated with Mann-Whitney test (**P<0.01; ***P<0.001).
Analysis was performed 24 h after last AZA administration. Gated from lineage negative (Lin^−) live cells. Lin^−Sca1^+c-Kit^++ cells (LSK), long-term hematopoietic stem cells (LT-HSC). […] Data were pooled from 2 independent experiments and represent mean±SD (n=7). Statistics were calculated Mann-Whitney test (**P<0.01; ***P<0.001).
In vivo administration of therapeutic agents and cytokines. Anti-mouse CD117 mAbs, clone ACK2 (BioXcell) and 2B8 (BioXcell), were injected retroorbital as a single dose of 500 μg following intraperitoneal administration of Diphenhydramine (Benadryl). Anti CD4 (clone GK1.5, BioXcell) and anti-CD8 (clone YTS169.4, BioXcell) were administered intraperitoneally at a dose of 100 μg in 100 μl phosphate-buffered saline (PBS). 5-Azacytidine (AZA) ([…] Technologies), was reconstituted in PBS to a concentration of 5 mg/ml and kept at −20° for up to 1 month. Before each injection, AZA was thawed for 10-15 min at room temperature (RT), resuspended in PBS and administered intraperitoneally in 100 μl. […]

## Nc1ncn([C@@H]2O[C@H](CO)[C@@H](O)[C@H]2O)c(=O)n1 [AZA, 5-Azacytidine]
AZA 1.25 mg/kg/d for 3 days, 24 h after last dose
  level of HSPC (LSK) and LT-HSC after depletion: −25 % of baseline
AZA 5 mg/kg/d for 5 days
  normalization of Ki67 in HSC and MPP: ≤ 10 days
AZA 5 mg/kg/d for 5 days, day 6
  Ki67 in HSC and MPP: significant increase of Ki67
AZA 1.25, 2.5 and 5 mg/kg/d for 3 days (all three dose regimens)
  Ki67 protein expression in HSC, MPP and MP compartments: significant increase in Ki67 protein expression
